# Patent USRE42890E1, “Furazanobenzimidazoles” (Basilea Pharmaceutica AG, priority 2003, dated 2011)
# Tested on: adherent cells or suspension cells
# Assay: Hoechst 33342 nuclear staining (fraction of apoptotic nuclei)
# Assay type: cell-based
# Parameters: key: 0 relating to no activity; 1 relating to weak activity comprising less than 70% of the cells; score 2 relating to strong activity comprising more than 70% of the cells
# Conditions: H460, conc 0.01 μm
row,SMILES,Hoechst 33342 nuclear staining score
1,N#CCCNc1nonc1-c1nc2ccccc2n1CC(=O)c1ccc2ccccc2c1 [Example 46],0
2,Nc1nonc1-c1nc2ccccc2n1CC(=O)c1cccc(Cl)c1 [Example 35],0
3,CC(=O)Nc1ccc(C(=O)Cn2c(-c3nonc3N)nc3ccccc32)cc1 [Example 60],0

# Same assay, conditions: H460, conc 0.1 μm
row,SMILES,Hoechst 33342 nuclear staining score
1,N#CCCNc1nonc1-c1nc2ccccc2n1CC(=O)c1ccc2ccccc2c1 [Example 46],0
2,Nc1nonc1-c1nc2ccccc2n1CC(=O)c1cccc(Cl)c1 [Example 35],0
3,CC(=O)Nc1ccc(C(=O)Cn2c(-c3nonc3N)nc3ccccc32)cc1 [Example 60],0

# Same assay, conditions: H460, conc 1 μm
row,SMILES,Hoechst 33342 nuclear staining score
1,N#CCCNc1nonc1-c1nc2ccccc2n1CC(=O)c1ccc2ccccc2c1 [Example 46],2 (score 2 relating to strong activity comprising more than 70% of the cells)
2,Nc1nonc1-c1nc2ccccc2n1CC(=O)c1cccc(Cl)c1 [Example 35],2 (score 2 relating to strong activity comprising more than 70% of the cells)
3,CC(=O)Nc1ccc(C(=O)Cn2c(-c3nonc3N)nc3ccccc32)cc1 [Example 60],0

# Same assay, conditions: HeLa, conc 0.01 μm
row,SMILES,Hoechst 33342 nuclear staining score
1,N#CCCNc1nonc1-c1nc2ccccc2n1CC(=O)c1ccc2ccccc2c1 [Example 46],0
2,Nc1nonc1-c1nc2ccccc2n1CC(=O)c1cccc(Cl)c1 [Example 35],0
3,CC(=O)Nc1ccc(C(=O)Cn2c(-c3nonc3N)nc3ccccc32)cc1 [Example 60],0

# Same assay, conditions: HeLa, conc 0.1 μm
row,SMILES,Hoechst 33342 nuclear staining score
1,N#CCCNc1nonc1-c1nc2ccccc2n1CC(=O)c1ccc2ccccc2c1 [Example 46],0
2,Nc1nonc1-c1nc2ccccc2n1CC(=O)c1cccc(Cl)c1 [Example 35],0
3,CC(=O)Nc1ccc(C(=O)Cn2c(-c3nonc3N)nc3ccccc32)cc1 [Example 60],0

# Same assay, conditions: HeLa, conc 1 μm
row,SMILES,Hoechst 33342 nuclear staining score
1,N#CCCNc1nonc1-c1nc2ccccc2n1CC(=O)c1ccc2ccccc2c1 [Example 46],2 (score 2 relating to strong activity comprising more than 70% of the cells)
2,Nc1nonc1-c1nc2ccccc2n1CC(=O)c1cccc(Cl)c1 [Example 35],2 (score 2 relating to strong activity comprising more than 70% of the cells)
3,CC(=O)Nc1ccc(C(=O)Cn2c(-c3nonc3N)nc3ccccc32)cc1 [Example 60],1 (1 relating to weak activity comprising less than 70% of the cells)

# Same assay, conditions: Jily, conc 0.01 μm
row,SMILES,Hoechst 33342 nuclear staining score
1,N#CCCNc1nonc1-c1nc2ccccc2n1CC(=O)c1ccc2ccccc2c1 [Example 46],0
2,Nc1nonc1-c1nc2ccccc2n1CC(=O)c1cccc(Cl)c1 [Example 35],0
3,CC(=O)Nc1ccc(C(=O)Cn2c(-c3nonc3N)nc3ccccc32)cc1 [Example 60],0

# Same assay, conditions: Jily, conc 0.1 μm
row,SMILES,Hoechst 33342 nuclear staining score
1,N#CCCNc1nonc1-c1nc2ccccc2n1CC(=O)c1ccc2ccccc2c1 [Example 46],2 (score 2 relating to strong activity comprising more than 70% of the cells)
2,Nc1nonc1-c1nc2ccccc2n1CC(=O)c1cccc(Cl)c1 [Example 35],1 (1 relating to weak activity comprising less than 70% of the cells)
3,CC(=O)Nc1ccc(C(=O)Cn2c(-c3nonc3N)nc3ccccc32)cc1 [Example 60],0

# Same assay, conditions: Jily, conc 1 μm
row,SMILES,Hoechst 33342 nuclear staining score
1,N#CCCNc1nonc1-c1nc2ccccc2n1CC(=O)c1ccc2ccccc2c1 [Example 46],2 (score 2 relating to strong activity comprising more than 70% of the cells)
2,Nc1nonc1-c1nc2ccccc2n1CC(=O)c1cccc(Cl)c1 [Example 35],2 (score 2 relating to strong activity comprising more than 70% of the cells)
3,CC(=O)Nc1ccc(C(=O)Cn2c(-c3nonc3N)nc3ccccc32)cc1 [Example 60],2 (score 2 relating to strong activity comprising more than 70% of the cells)

# Same assay, conditions: Jurkat, conc 0.01 μm
row,SMILES,Hoechst 33342 nuclear staining score
1,N#CCCNc1nonc1-c1nc2ccccc2n1CC(=O)c1ccc2ccccc2c1 [Example 46],0
2,Nc1nonc1-c1nc2ccccc2n1CC(=O)c1cccc(Cl)c1 [Example 35],0
3,CC(=O)Nc1ccc(C(=O)Cn2c(-c3nonc3N)nc3ccccc32)cc1 [Example 60],0

# Same assay, conditions: Jurkat, conc 0.1 μm
row,SMILES,Hoechst 33342 nuclear staining score
1,N#CCCNc1nonc1-c1nc2ccccc2n1CC(=O)c1ccc2ccccc2c1 [Example 46],2 (score 2 relating to strong activity comprising more than 70% of the cells)
2,Nc1nonc1-c1nc2ccccc2n1CC(=O)c1cccc(Cl)c1 [Example 35],2 (score 2 relating to strong activity comprising more than 70% of the cells)
3,CC(=O)Nc1ccc(C(=O)Cn2c(-c3nonc3N)nc3ccccc32)cc1 [Example 60],0

# Same assay, conditions: Jurkat, conc 1 μm
row,SMILES,Hoechst 33342 nuclear staining score
1,N#CCCNc1nonc1-c1nc2ccccc2n1CC(=O)c1ccc2ccccc2c1 [Example 46],2 (score 2 relating to strong activity comprising more than 70% of the cells)
2,Nc1nonc1-c1nc2ccccc2n1CC(=O)c1cccc(Cl)c1 [Example 35],2 (score 2 relating to strong activity comprising more than 70% of the cells)
3,CC(=O)Nc1ccc(C(=O)Cn2c(-c3nonc3N)nc3ccccc32)cc1 [Example 60],2 (score 2 relating to strong activity comprising more than 70% of the cells)

# Same assay, conditions: MRC5, conc 0.01 μm
row,SMILES,Hoechst 33342 nuclear staining score
1,N#CCCNc1nonc1-c1nc2ccccc2n1CC(=O)c1ccc2ccccc2c1 [Example 46],0
2,Nc1nonc1-c1nc2ccccc2n1CC(=O)c1cccc(Cl)c1 [Example 35],0
3,CC(=O)Nc1ccc(C(=O)Cn2c(-c3nonc3N)nc3ccccc32)cc1 [Example 60],0

# Same assay, conditions: MRC5, conc 0.1 μm
row,SMILES,Hoechst 33342 nuclear staining score
1,N#CCCNc1nonc1-c1nc2ccccc2n1CC(=O)c1ccc2ccccc2c1 [Example 46],0
2,Nc1nonc1-c1nc2ccccc2n1CC(=O)c1cccc(Cl)c1 [Example 35],2 (score 2 relating to strong activity comprising more than 70% of the cells)
3,CC(=O)Nc1ccc(C(=O)Cn2c(-c3nonc3N)nc3ccccc32)cc1 [Example 60],0

# Same assay, conditions: MRC5, conc 1 μm
row,SMILES,Hoechst 33342 nuclear staining score
1,N#CCCNc1nonc1-c1nc2ccccc2n1CC(=O)c1ccc2ccccc2c1 [Example 46],2 (score 2 relating to strong activity comprising more than 70% of the cells)
2,Nc1nonc1-c1nc2ccccc2n1CC(=O)c1cccc(Cl)c1 [Example 35],2 (score 2 relating to strong activity comprising more than 70% of the cells)
3,CC(=O)Nc1ccc(C(=O)Cn2c(-c3nonc3N)nc3ccccc32)cc1 [Example 60],2 (score 2 relating to strong activity comprising more than 70% of the cells)

# Same assay, conditions: PBLs, conc 0.01 μm
row,SMILES,Hoechst 33342 nuclear staining score
1,N#CCCNc1nonc1-c1nc2ccccc2n1CC(=O)c1ccc2ccccc2c1 [Example 46],0
2,Nc1nonc1-c1nc2ccccc2n1CC(=O)c1cccc(Cl)c1 [Example 35],0
3,CC(=O)Nc1ccc(C(=O)Cn2c(-c3nonc3N)nc3ccccc32)cc1 [Example 60],0

# Same assay, conditions: PBLs, conc 0.1 μm
row,SMILES,Hoechst 33342 nuclear staining score
1,N#CCCNc1nonc1-c1nc2ccccc2n1CC(=O)c1ccc2ccccc2c1 [Example 46],0
2,Nc1nonc1-c1nc2ccccc2n1CC(=O)c1cccc(Cl)c1 [Example 35],0
3,CC(=O)Nc1ccc(C(=O)Cn2c(-c3nonc3N)nc3ccccc32)cc1 [Example 60],0

# Same assay, conditions: PBLs, conc 1 μm
row,SMILES,Hoechst 33342 nuclear staining score
1,N#CCCNc1nonc1-c1nc2ccccc2n1CC(=O)c1ccc2ccccc2c1 [Example 46],0
2,Nc1nonc1-c1nc2ccccc2n1CC(=O)c1cccc(Cl)c1 [Example 35],0
3,CC(=O)Nc1ccc(C(=O)Cn2c(-c3nonc3N)nc3ccccc32)cc1 [Example 60],0

# Tested on: HeLa
# Assay: MTS proliferation assay, HeLa
# Assay type: cell-based, human
# Conditions: 72 h incubation, read-out: MTS proliferation assay IC 50 HeLa
# In short: (§1)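 Cells were seeded 24 h before treatment and exposed to compound at 10, 3, 1 and 0.3 μM final for 72 h at 37 °C, 7.5% CO2 in RPMI-1640 with 5% or 10% FCS. Viability was read by MTS reagent (3 h) as absorbance at 492 nm.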
row,SMILES,IC50
1,N#CCCNc1nonc1-c1nc2ccccc2n1CC(=O)c1ccc2ccccc2c1 [Example 46],0.01 to 0.1 µM
2,Nc1nonc1-c1nc2ccccc2n1CC(=O)c1cccc(Cl)c1 [Example 35],0.01 to 0.1 µM
3,CC(=O)Nc1ccc(C(=O)Cn2c(-c3nonc3N)nc3ccccc32)cc1 [Example 60],0.1 to 1 µM

# Tested on: HT1080
# Assay: MTS proliferation assay, HT1080
# Assay type: cell-based, human
# Conditions: HT1080, 72 h incubation; read-out: MTS proliferation assay IC 50 HT1080
# In short: as §1
row,SMILES,IC50
1,N#CCCNc1nonc1-c1nc2ccccc2n1CC(=O)c1ccc2ccccc2c1 [Example 46],0.01 to 0.1 µM
2,Nc1nonc1-c1nc2ccccc2n1CC(=O)c1cccc(Cl)c1 [Example 35],0.1 to 1 µM
3,CC(=O)Nc1ccc(C(=O)Cn2c(-c3nonc3N)nc3ccccc32)cc1 [Example 60],0.1 to 1 µM

# Tested on: Jily
# Assay: MTS proliferation assay, Jily
# Assay type: cell-based
# Conditions: 72 h incubation, read-out: MTS proliferation assay IC 50 Jily
# In short: (§2)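 Cells in RPMI-1640 with 5% or 10% FCS, 2-mercaptoethanol and glutamine were seeded 24 h before treatment with compound at final 10, 3, 1 and 0.3 μM. After 72 h at 37° C and 7.5% CO2, MTS reagent was added for 3 h and absorbance read at 492 nm.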
row,SMILES,IC50
1,N#CCCNc1nonc1-c1nc2ccccc2n1CC(=O)c1ccc2ccccc2c1 [Example 46],0.01 to 0.1 µM
2,Nc1nonc1-c1nc2ccccc2n1CC(=O)c1cccc(Cl)c1 [Example 35],0.01 to 0.1 µM
3,CC(=O)Nc1ccc(C(=O)Cn2c(-c3nonc3N)nc3ccccc32)cc1 [Example 60],0.1 to 1 µM

# Tested on: Jurkat
# Assay: MTS proliferation assay, Jurkat
# Assay type: cell-based, human
# Conditions: 72 h incubation, read-out: MTS proliferation assay IC 50 Jurkat
# In short: as §1
row,SMILES,IC50
1,N#CCCNc1nonc1-c1nc2ccccc2n1CC(=O)c1ccc2ccccc2c1 [Example 46],< 0.01 µM
2,Nc1nonc1-c1nc2ccccc2n1CC(=O)c1cccc(Cl)c1 [Example 35],0.01 to 0.1 µM
3,CC(=O)Nc1ccc(C(=O)Cn2c(-c3nonc3N)nc3ccccc32)cc1 [Example 60],0.1 to 1 µM

# Tested on: MRC5
# Assay: MTS proliferation assay, MRC5
# Assay type: cell-based
# Conditions: MRC5, 72 h incubation; read-out: MTS proliferation assay IC 50 MRC5
# In short: as §2
row,SMILES,IC50
1,N#CCCNc1nonc1-c1nc2ccccc2n1CC(=O)c1ccc2ccccc2c1 [Example 46],0.1 to 1 µM
2,Nc1nonc1-c1nc2ccccc2n1CC(=O)c1cccc(Cl)c1 [Example 35],0.1 to 1 µM
3,CC(=O)Nc1ccc(C(=O)Cn2c(-c3nonc3N)nc3ccccc32)cc1 [Example 60],0.1 to 1 µM
